# Earlier results, collected in patent publication US12458645B2, “Pediatric powder for oral suspension containing antiviral agent and method for the preparation thereof” (PHARMATHEN S.A., priority 2014, dated 2025).
# Where a name gives a salt, the structure may show the parent alone.
# Tests used:
# [1] = in words
# [2] = in words; remark: listed apart in the source
solubility in dichloromethane [1],solubility in water [1],oral bioavailability [2],Compound
insoluble in dichloromethane,soluble in water,–,"CC(C)[C@H](N)C(=O)OCCOCn1cnc2c(=O)[nH]c(N)nc21 [Valaciclovir hydrochloride, L-valine, 2-[(2-amino-1,6-dihydro-6-oxo-9H-purin-9-yl)methoxy] ethyl ester, mono hydrochloride]"
–,–,poor oral bioavailability,"Nc1nc2c(ncn2COCCO)c(=O)[nH]1 [acyclovir, Acyclovir]"
